≈ marks a conversion by molar mass, not a printed value.
How the values were obtained:
[1] = Determination of stability against mouse liver microsomes; format: in vitro ADME; settings: mouse liver microsomes 1 mg protein/mL, 2 mM NADPH, pH 7.4, 37 C; read-out: Stability against mouse liver microsome NADPH+ T1/2
Procedure: (§1) The enzyme reaction was quenched with three volumes of acetonitrile, and the reaction mixture was centrifuged at 1,500 rpm for ten minutes to provide a supernatant as a sample to be measured. Stability against mouse liver microsomes was measured using HPLC/MS to determine the compounds in the sample.

[2] = test system: Human colon cancer cell line HT-29; assay: Determination of the activity of inhibiting cell proliferation (Cell Counting Kit-8); format: cell-based; settings: HT-29, 96 h, HT29, 2,000 cells/well, incubated four days, read-out: Cell proliferation inhibitory activity (HT29) IC50
Procedure: Human colon cancer cell line HT-29, obtained from American Type Culture Collection (VA, USA), and human non-small cell lung cancer cell line QG56, obtained from Immuno-Biological Laboratories Co., Ltd., were plated at 2,000 cells/well in a 96-well culture plate, and incubated for four days after addition of a MEK inhibitor of a given concentration.

[3] = Determination of stability against human liver microsomes; format: in vitro ADME; settings: human liver microsomes 1 mg protein/mL, 2 mM NADPH, pH 7.4, 37 C; read-out: Stability against human liver microsome NADPH+ T1/2
Procedure: as §1, with “human” for “mouse”

[4] = phase I clinical trials; cited from earlier work
[5] = Determination of water solubility (equilibrium stirring method); format: physicochemical; settings: 50 mM phosphate buffer pH 6.5, room temperature (20 C); for solubility at 2 h: aqueous buffer, thermodynamic from solid, read-out: Water solubility (LySA PH 6.5)
Procedure: The vessels were sealed, and the contents were sonicated at room temperature (20° C.) for ten minutes, and then stirred with a stirrer for two hours. After reaching solution equilibrium, the solution was separated with a membrane filter, and the solute concentration was determined using HPLC.

[6] = target: MEK (Homo sapiens, UniProt Q02750); assay: Determination of MEK inhibitory activities (Raf-1 kinase cascade assay, MBP phosphorylation, 33P-ATP)
MEK, sequence (Q02750 whole entry): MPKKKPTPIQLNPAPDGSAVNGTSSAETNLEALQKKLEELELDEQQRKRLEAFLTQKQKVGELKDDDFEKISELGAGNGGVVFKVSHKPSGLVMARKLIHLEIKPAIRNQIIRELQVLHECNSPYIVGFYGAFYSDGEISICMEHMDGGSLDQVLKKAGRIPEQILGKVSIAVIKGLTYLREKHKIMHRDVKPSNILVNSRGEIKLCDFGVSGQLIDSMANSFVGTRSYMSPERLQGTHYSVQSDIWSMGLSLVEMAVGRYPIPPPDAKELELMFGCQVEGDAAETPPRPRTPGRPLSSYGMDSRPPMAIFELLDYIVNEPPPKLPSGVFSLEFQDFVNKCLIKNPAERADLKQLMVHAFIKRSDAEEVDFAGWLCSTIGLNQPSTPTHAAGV
Excerpt: The radioisotope used was [γ^33P]-ATP (Amersham Biosciences, K.K.).

half-life [1] [h]	IC50 [2] [µM]	half-life [3] [h]	solubility at 2 h [5] [µM]	IC50 [6] [µM]	Water solubility (LySA PH 6.5) [5] [µM]	Structure (SMILES)	differences in pharmacokinetic parameters between patients [4]	in vivo inactivation [4]
2.15	0.196	> 6	73 (≈ 43.5 µg/mL)	0.267	–	O=C(CO/N=C/c1cc(C(=O)NOCCO)c(Nc2ccc(I)cc2F)c(F)c1F)NCCO [Compound 45, (E)-3,4-difluoro-2-(2-fluoro-4-iodo-phenylamino)-N-(2-hydroxy-ethoxy)-5-{[(2-hydroxyethylcarbamoyl)-methoxyimino]-methyl}-benzamide]	–	–
> 6	0.138	> 6	11 (≈ 6.78 µg/mL)	0.209	–	CS(=O)(=O)NCCO/N=C/c1cc(C(=O)NOCCO)c(Nc2ccc(I)cc2F)c(F)c1F [Compound 47, (E)-3,4-difluoro-2-(2-fluoro-4-iodo-phenylamino)-N-(2-hydroxy-ethoxy)-5-[(2-methanesulfonylamino-ethoxyimino)-methyl]-benzamide]	–	–
2.03	0.013	0.603	301 (≈ 132 µg/mL)	0.051	–	C#Cc1ccc(Nc2c(C(=O)NOCCO)cc(/C=N\OCCO)c(F)c2F)c(F)c1 [Compound 48, (Z)-2-(4-ethynyl-2-fluoro-phenylamino)-3,4-difluoro-N-(2-hydroxy-ethoxy)-5-[(2-hydroxy-ethoxyimino)-methyl]-benzamide]	–	–
> 6	0.0048	> 6	–	0.031	75	O=C(NOCCO)c1cc(/C=N\OCCO)c(F)c(F)c1Nc1ccc(I)cc1F [Compound 49, (Z)-3,4-difluoro-2-(2-fluoro-4-iodo-phenylamino)-N-(2-hydroxy-ethoxy)-5-[(2-hydroxy-ethoxyimino)-methyl]-benzamide]	–	–
> 6	0.0058	> 6	175 (≈ 99.6 µg/mL)	0.015	–	O=C(NOCCO)c1cc(/C=N\OCC(O)CO)c(F)c(F)c1Nc1ccc(I)cc1F (stereo not drawn) [Compound 52, (dl)-(Z)-5-[(2,3-Dihydroxy-propoxyimino)-methyl]-3,4-difluoro-2-(2-fluoro-4-iodo-phenylamino)-N-(2-hydroxy-ethoxy)-benzamide]	–	–
> 6	0.0065	> 6	20 (≈ 11.6 µg/mL)	0.021	–	CC(=O)NCCO/N=C\c1cc(C(=O)NOCCO)c(Nc2ccc(I)cc2F)c(F)c1F [Compound 54, (Z)-5-[(2-Acetylamino-ethoxyimino)-methyl]-3,4-difluoro-2-(2-fluoro-4-iodo-phenylamino)-N-(2-hydroxy-ethoxy)-benzamide]	–	–
> 6	0.0046	1.62	12 (≈ 7.13 µg/mL)	0.037	–	CNC(=O)CCCO/N=C\c1cc(C(=O)NOCCO)c(Nc2ccc(I)cc2F)c(F)c1F [Compound 55]	–	–
0.645	0.0034	> 6	85 (≈ 48.1 µg/mL)	0.049	–	CNC(=O)CO/N=C\c1cc(C(=O)NOCCO)c(Nc2ccc(I)cc2F)c(F)c1F [Compound 56, (Z)-3,4-Difluoro-2-(2-fluoro-4-iodo-phenylamino)-N-(2-hydroxy-ethoxy)-5-(methylcarbamoylmethoxyimino-methyl)-benzamide]	–	–
> 6	0.027	> 6	224 (≈ 134 µg/mL)	0.019	–	O=C(CO/N=C\c1cc(C(=O)NOCCO)c(Nc2ccc(I)cc2F)c(F)c1F)NCCO [Compound 57, (Z)-3,4-Difluoro-2-(2-fluoro-4-iodo-phenylamino)-N-(2-hydroxy-ethoxy)-5-{[(2-hydroxyethylcarbamoyl)-methoxyimino]-methyl}-benzamide]	–	–

Structure (SMILES)	half-life [1] [h]	IC50 [2] [µM]	half-life [3] [h]	solubility at 2 h [5] [µM]	IC50 [6] [µM]	Water solubility (LySA PH 6.5) [5] [µM]	differences in pharmacokinetic parameters between patients [4]	in vivo inactivation [4]
O=C(NOCC1CC1)c1ccc(F)c(F)c1Nc1ccc(I)cc1Cl [CI-1040, reference compound]	0.18	0.1	0.482	–	–	–	large differences	quick in vivo inactivation by hydrolysis
